Measurements reported in patent publication US11179412B2, “Methods of treating conditions involving elevated inflammatory response” (University of Pittsburgh—Of the Commonwealth System of …, priority 2017, dated 2021).
“Also recorded” adds a separate entry of the source.

Legend:
[1] = test system: STING activation (IFNβ release) in iBMDMs; test: IFNβ release ELISA after STING ligand (or LPS) stimulation, iBMDMs; format: cell-based, mouse; conditions: iBMDMs; 3′3′-cGAMP 10 μg/ml, 16 hours; compound 10 μM
Method in brief: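 IFNβ released into the medium was quantified by ELISA (mouse or human kit) after iBMDM stimulation with the canonical STING agonist 3′3′-cGAMP or with LPS.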

[2] = test system: iBMDMs; test: Cell viability assay (CCK-8), iBMDMs; format: cell-based, mouse; conditions: 3′3′-cGAMP 10 μg/ml, ALK inhibitor 10 μM, 16 hours
Procedure: (§1) Cells were seeded into 96-well plates and incubated with the indicated treatments. Subsequently, 100 μl fresh medium was added to cells containing 10 μl Cell Counting Kit-8 (CCK-8) solutions (Dojindo Laboratories) and incubated for 1 h (37° C., 5% CO2). Absorbance at 450 nm was measured using a microplate reader (Tecan).

[3] = test system: pPMs; test: Cell viability assay (CCK-8), pPMs; format: cell-based, mouse; conditions: 3′3′-cGAMP 10 μg/ml, ALK inhibitor 10 μM, 16 hours
Procedure: as §1

[4] = test system: RAW264.7 cells; test: Cell viability assay (CCK-8), RAW264.7; format: cell-based, mouse; conditions: 3′3′-cGAMP 10 μg/ml, ALK inhibitor 10 μM, 16 hours
Procedure: as §1

[5] = test system: THP1 cells; test: Cell viability assay (CCK-8), THP1; format: cell-based, human; conditions: 3′3′-cGAMP 10 μg/ml, ALK inhibitor 10 μM, 16 hours
Procedure: as §1

[6] = test system: STING activation (IFNβ release) in pPMs; test: IFNβ release ELISA, primary peritoneal macrophages (pPMs); format: cell-based, mouse; conditions: mouse pPMs; 3′3′-cGAMP 10 μg/ml, 16 hours; compound 10 μM
Procedure: Mouse pPMs were isolated from C57BL/6J mice as previously described (69). In brief, eight-week-old female or male C57BL/6J mice were injected with 3.0% thioglycollate medium (2 mL/mouse) into the peritoneum. Three days after injection, mice were sacrificed and injected with 3 mL of 0.05% EDTA-PBS into the peritoneum to harvest peritoneal macrophages. Collected cells were centrifuged at 1000 rpm for 5 min at 4° C., and the cell pellet was washed with PBS and centrifuged again. The cell pellet was then suspended in Dulbecco's Modified Eagle Medium supplemented with 10% FBS and 1× Penicillin-Streptomycin and cultured in a culture dish.
(§2) Macrophages or monocytes were treated with 3′3′-cGAMP (10 μg/ml, Invitrogen) for 16 hours in the absence or presence of one compound (10 μM) from the Target-selective Inhibitory Library (#L3500, Selleck Chemicals). Commercially available enzyme-linked immunosorbent assay (ELISA) kits were used to measure the concentrations of mouse IFNβ (Thermo Fisher Scientific) or human IFNβ (Thermo Fisher Scientific) in culture medium according to the manufacturer's instructions.

[7] = test system: STING activation (IFNβ release) in pPBMCs; test: IFNβ release ELISA, primary peripheral blood mononuclear cells (pPBMCs); format: cell-based; conditions: human pPBMCs; 3′3′-cGAMP 10 μg/ml, 16 hours; compound 10 μM
Procedure: as §2

[8] = test system: STING signaling (TBK1, IRF3, p65, ALK, EGFR, AKT phosphorylation) in iBMDMs; test: Western blot of STING pathway protein phosphorylation, iBMDMs; format: cell-based, mouse; conditions: 16 hours, 10 μM
Procedure: (§3) For immunoblotting, cells were lysed in Cell Lysis Buffer (#9803, Cell Signaling Technology) with protease inhibitor cocktail (Promega), phosphatase inhibitor cocktail (Sigma), and 1 mM Na3VO4 (70). Cleared lysates were resolved by SDS-PAGE (#3450124, Bio-Rad) and then transferred onto PVDF membranes (#1704273, Bio-Rad). The membranes were blocked with Tris-buffered saline Tween 20 (TBST) containing 5% skim milk for 1 h at room temperature and then incubated with the indicated primary antibodies (1:1000-1:5000) overnight at 4° C. After being washed with TBST, the membranes were incubated with an HRP-linked anti-mouse IgG secondary antibody (#7076, Cell Signaling Technology) or HRP-linked anti-rabbit IgG secondary antibody (#7074, Cell Signaling Technology) for 1 h at room temperature. The membranes were washed three times in TBST and then visualized and analyzed with a ChemiDoc Touch Imaging System (#1708370, Bio-Rad). The intensities of bands were analyzed with Image Lab software.

[9] = test system: STING signaling (TBK1, IRF3, p65, ALK, EGFR, AKT phosphorylation) in RAW264.7 cells; test: Western blot of STING pathway protein phosphorylation, RAW264.7; format: cell-based, mouse; conditions: 16 hours, 10 μM
Procedure: as §3

[10] = test system: STING signaling (TBK1, IRF3, p65, ALK, EGFR, AKT phosphorylation) in THP1 cells; test: Western blot of STING pathway protein phosphorylation, THP1; format: cell-based, human; conditions: 16 hours, 10 μM
Procedure: as §3

[11] = target: T1, interaction between ALK and EGFR (Mus musculus, UniProt P97793+Q01279); test: IP analysis of the interaction between ALK and EGFR, iBMDMs; format: cell-based; conditions: 3′3′-cGAMP or c-di-AMP 10 μg/ml, 16 hours, 10 μM
T1 construct: endogenous in cells; host or cells: iBMDMs
Procedure: Concentrations of proteins in the supernatant were determined by bicinchoninic acid assay. […] Following incubation, agarose/sepharose beads were washed extensively with PBS and proteins were eluted by boiling in 2× sodium dodecyl sulfate (SDS) sample buffer before SDS-PAGE electrophoresis.

[12] = target: T2, interaction between ALK and EGFR (Homo sapiens, UniProt P00533+Q9UM73); test: IP analysis of the interaction between ALK and EGFR, THP1; format: cell-based; conditions: 3′3′-cGAMP or c-di-AMP 10 μg/ml, 16 hours, 10 μM
T2 construct: endogenous in cells; host or cells: THP1 cells
T2 sequence (Q9UM73 19-1620): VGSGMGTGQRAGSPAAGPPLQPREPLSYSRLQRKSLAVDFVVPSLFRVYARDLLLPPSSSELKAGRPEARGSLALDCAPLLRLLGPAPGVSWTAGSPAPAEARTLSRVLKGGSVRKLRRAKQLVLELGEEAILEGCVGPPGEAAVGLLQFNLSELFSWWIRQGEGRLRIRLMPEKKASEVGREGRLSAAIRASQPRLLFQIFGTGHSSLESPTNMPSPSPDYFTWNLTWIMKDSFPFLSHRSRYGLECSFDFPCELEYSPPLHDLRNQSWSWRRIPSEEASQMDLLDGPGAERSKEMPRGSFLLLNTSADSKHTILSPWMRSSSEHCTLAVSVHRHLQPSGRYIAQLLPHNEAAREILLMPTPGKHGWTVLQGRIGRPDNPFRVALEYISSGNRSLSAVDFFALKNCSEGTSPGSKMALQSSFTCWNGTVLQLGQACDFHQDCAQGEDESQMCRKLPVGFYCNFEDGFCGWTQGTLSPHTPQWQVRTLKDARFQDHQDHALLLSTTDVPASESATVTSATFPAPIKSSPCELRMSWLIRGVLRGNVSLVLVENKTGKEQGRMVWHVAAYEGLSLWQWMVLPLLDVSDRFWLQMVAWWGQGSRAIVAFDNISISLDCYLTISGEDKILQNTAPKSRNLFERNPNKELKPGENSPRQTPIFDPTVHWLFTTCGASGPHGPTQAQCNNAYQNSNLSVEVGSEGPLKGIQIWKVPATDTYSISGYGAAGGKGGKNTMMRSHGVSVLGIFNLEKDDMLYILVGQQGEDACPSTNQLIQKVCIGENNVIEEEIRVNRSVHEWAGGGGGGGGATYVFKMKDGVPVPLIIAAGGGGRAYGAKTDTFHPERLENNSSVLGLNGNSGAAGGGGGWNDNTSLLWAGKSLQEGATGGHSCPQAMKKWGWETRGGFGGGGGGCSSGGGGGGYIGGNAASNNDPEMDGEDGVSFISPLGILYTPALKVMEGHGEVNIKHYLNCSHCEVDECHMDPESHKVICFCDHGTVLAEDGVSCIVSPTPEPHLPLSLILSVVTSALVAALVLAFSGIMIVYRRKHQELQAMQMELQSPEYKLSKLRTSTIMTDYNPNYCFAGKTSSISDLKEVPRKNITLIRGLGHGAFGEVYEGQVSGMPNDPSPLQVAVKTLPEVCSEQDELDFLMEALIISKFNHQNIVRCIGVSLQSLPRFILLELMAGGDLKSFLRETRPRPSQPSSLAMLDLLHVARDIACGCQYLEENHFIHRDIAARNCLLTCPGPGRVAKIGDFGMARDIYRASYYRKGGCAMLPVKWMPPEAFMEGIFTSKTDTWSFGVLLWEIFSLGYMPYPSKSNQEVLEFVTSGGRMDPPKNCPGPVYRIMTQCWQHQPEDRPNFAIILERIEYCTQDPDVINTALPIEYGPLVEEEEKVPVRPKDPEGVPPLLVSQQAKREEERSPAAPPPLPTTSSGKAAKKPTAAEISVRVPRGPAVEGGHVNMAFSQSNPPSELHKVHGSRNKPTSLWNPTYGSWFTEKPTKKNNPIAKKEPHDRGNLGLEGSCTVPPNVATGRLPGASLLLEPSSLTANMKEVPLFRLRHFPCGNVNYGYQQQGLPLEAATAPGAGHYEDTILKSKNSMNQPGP
T2 sequence (P00533 25-1210): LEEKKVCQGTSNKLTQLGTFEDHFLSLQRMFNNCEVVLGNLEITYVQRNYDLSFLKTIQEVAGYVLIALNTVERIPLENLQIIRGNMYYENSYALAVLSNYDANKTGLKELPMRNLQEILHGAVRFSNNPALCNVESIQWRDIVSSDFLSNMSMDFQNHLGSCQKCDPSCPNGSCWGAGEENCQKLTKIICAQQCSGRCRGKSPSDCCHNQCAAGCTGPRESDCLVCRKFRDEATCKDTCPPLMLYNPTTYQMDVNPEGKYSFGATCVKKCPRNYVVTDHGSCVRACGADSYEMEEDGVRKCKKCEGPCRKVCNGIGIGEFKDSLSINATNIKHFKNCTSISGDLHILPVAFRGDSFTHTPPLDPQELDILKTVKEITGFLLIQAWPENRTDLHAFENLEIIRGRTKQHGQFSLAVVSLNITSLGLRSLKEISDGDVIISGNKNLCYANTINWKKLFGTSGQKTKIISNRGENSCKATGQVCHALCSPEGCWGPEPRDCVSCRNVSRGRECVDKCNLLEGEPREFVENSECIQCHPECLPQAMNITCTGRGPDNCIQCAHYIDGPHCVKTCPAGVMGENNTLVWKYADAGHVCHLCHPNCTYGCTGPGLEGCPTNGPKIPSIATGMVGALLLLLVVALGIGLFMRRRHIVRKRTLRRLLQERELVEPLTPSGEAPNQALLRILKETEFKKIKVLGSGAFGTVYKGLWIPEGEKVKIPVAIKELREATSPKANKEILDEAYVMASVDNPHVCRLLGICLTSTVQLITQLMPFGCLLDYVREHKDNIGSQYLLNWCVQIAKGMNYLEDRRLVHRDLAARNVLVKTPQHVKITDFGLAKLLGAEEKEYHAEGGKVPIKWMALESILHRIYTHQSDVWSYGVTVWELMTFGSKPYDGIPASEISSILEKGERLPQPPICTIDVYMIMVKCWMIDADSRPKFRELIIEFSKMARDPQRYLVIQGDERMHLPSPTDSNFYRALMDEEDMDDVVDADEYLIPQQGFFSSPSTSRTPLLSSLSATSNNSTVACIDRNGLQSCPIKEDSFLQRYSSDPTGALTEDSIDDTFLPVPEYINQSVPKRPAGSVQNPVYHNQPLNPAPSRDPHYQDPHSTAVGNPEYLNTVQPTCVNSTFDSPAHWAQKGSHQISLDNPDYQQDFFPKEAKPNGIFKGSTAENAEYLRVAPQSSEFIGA
Procedure: For immunoprecipitation, cells were lysed at 4° C. in ice-cold modified radioimmunoprecipitation lysis buffer (#9806, Cell Signaling Technology) and cell lysates were cleared by centrifugation (12,000 g, 10 min). Concentrations of proteins in the supernatant were determined by bicinchoninic acid assay. Prior to immunoprecipitation, samples containing equal amounts of proteins were pre-cleared with Protein A/G agarose/sepharose beads (#20423, Thermo Fisher Scientific Inc.) (4° C., 3 h) and subsequently incubated with various irrelevant IgG or anti-ALK (#ab190934, Abcam) or anti-EGFR antibodies (#2232S, Cell Signaling Technology) in the presence of Protein A/G agarose/sepharose beads overnight at 4° C. with gentle shaking. Following incubation, agarose/sepharose beads were washed extensively with PBS and proteins were eluted by boiling in 2× sodium dodecyl sulfate (SDS) sample buffer before SDS-PAGE electrophoresis.

[13] = 3′3′-cGAMP or c-di-AMP 10 μg/ml

| SMILES | fold increase in IFN-β release [1] | cell viability [2] | cell viability [3] | cell viability [4] | cell viability [5] | 3′3′-cGAMP-induced IFNβ release [1] | 3′3′-cGAMP-induced IFNβ release [6] | 3′3′-cGAMP-induced IFNβ release [7] | STING ligand-induced phosphorylation of TBK1, IRF3, and p65 [8, 13] | 3′3′-cGAMP- or c-di-AMP-induced phosphorylation of ALK, EGFR, and AKT ([8]; ligand 10 μg/ml) | STING ligand-induced phosphorylation of TBK1, IRF3, and p65 [9, 13] | 3′3′-cGAMP- or c-di-AMP-induced phosphorylation of ALK, EGFR, and AKT ([9]; ligand 10 μg/ml) | STING ligand-induced phosphorylation of TBK1, IRF3, and p65 [10, 13] | 3′3′-cGAMP- or c-di-AMP-induced phosphorylation of ALK, EGFR, and AKT ([10]; ligand 10 μg/ml) | interaction between ALK and EGFR [11] | interaction between ALK and EGFR [12] |
| --- | --- | --- | --- | --- | --- | --- | --- | --- | --- | --- | --- | --- | --- | --- | --- | --- |
| COc1cc(N2CCC(N3CCN(C)CC3)CC2)ccc1Nc1ncc(Cl)c(Nc2ccccc2P(C)(C)=O)n1 [AP26113] | 0.19 fold | did not affect cell viability | did not affect cell viability | did not affect cell viability | did not affect cell viability | – | – | – | – | – | – | – | – | – | – | – |
| COc1cc(N2CCC(N)CC2)ccc1Nc1ncc(Cl)c(-c2c[nH]c3ccccc23)n1 [AZD3463] | 0.05 fold | exhibited cytotoxicity | exhibited cytotoxicity | exhibited cytotoxicity | exhibited cytotoxicity | blocked; also recorded: diminished | confirmed their inhibitory properties | confirmed their inhibitory properties | – | – | – | – | – | – | – | – |
| O=C(/C=C\n1cnc(-c2cc(C(F)(F)F)cc(C(F)(F)F)c2)n1)NNc1cnccn1 [KPT-330] | 0.05 fold | – | – | – | – | blocked | confirmed their inhibitory properties | confirmed their inhibitory properties | – | – | – | – | – | – | – | – |
| C[C@@H]1CN(CC(=O)Nc2ccc3c(c2)Cc2cccc(-c4cc(=O)cc(N5CCOCC5)o4)c2S3)C[C@H](C)O1 [KU-60019] | 0.06 fold | – | – | – | – | blocked | confirmed their inhibitory properties | confirmed their inhibitory properties | – | – | – | – | – | – | – | – |
| C#Cc1cccc(Nc2ncnc3cc(OCCOC)c(OCCO)cc23)c1 [OSI-420] | 0.14 fold | – | – | – | – | – | – | – | diminished | attenuated | diminished | attenuated | diminished | attenuated | reduced | reduced |
| Cl.NC(=O)c1cnc(N[C@@H]2CCCC[C@@H]2N)nc1Nc1cccc(-n2nccn2)c1 [PRT062607 (P505-15, BIIB057) HCl] | 0.07 fold | – | – | – | – | blocked | confirmed their inhibitory properties | confirmed their inhibitory properties | – | – | – | – | – | – | – | – |
